T1: myeloperoxidase (MPO) (Mus musculus, UniProt P11247)
T1 construct: The supernatants were harvested and MPO activities were measured using the neutrophil MPO activity assay kit; endogenous in cells; host or cells: mouse SCF/2i GMPs, SCF/2i GMP-derived granulocytes and mouse blood neutrophils; MPO measured in culture supernatant after PMA stimulation
T1 sequence (P11247 139-718): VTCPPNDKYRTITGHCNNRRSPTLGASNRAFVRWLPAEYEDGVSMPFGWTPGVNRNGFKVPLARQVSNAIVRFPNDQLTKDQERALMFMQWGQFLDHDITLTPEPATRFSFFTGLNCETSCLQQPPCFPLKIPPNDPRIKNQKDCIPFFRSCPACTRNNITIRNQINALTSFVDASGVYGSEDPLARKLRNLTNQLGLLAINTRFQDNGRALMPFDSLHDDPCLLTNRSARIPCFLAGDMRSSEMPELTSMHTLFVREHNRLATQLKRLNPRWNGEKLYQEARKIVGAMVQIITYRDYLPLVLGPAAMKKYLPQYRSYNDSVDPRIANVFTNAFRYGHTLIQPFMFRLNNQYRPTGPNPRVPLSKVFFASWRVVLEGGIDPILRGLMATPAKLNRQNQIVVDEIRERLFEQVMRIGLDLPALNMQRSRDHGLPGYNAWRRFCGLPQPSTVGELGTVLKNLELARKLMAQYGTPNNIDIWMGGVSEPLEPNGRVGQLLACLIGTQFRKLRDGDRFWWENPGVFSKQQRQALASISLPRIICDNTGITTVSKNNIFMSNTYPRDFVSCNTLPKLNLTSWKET

B1: M-CSF: macrophage differentiation factor (protein, UniProt P09603 33-554, looked up)
Macrophage colony-stimulating …: EEVSEYCSHMIGSGHLQSLQRLIDSQMETSCQITFEFVDQEQLKDPVCYLKKAFLLVQDIMEDTMRFRDNTPNAIAIVQLQELSLRLKSCFTKDYEEHDKACVRTFYETPLQLLEKVKNVFNETKNLLDKDWNIFSKNCNNSFAECSSQDVVTKPDCNCLYPKAIPSSDPASVSPHQPLAPSMAPVAGLTWEDSEGTEGSSLLPGEQPLHTVDPGSAKQRPPRSTCQSFEPPETPVVKDSTIGGSPQPRPSVGAFNPGMEDILDSAMGTNWVPEEASGEASEIPVPQGTELSPSRPGGGSMQTEPARPSNFLSASSPLPASAKGQQPADVTGTALPRVGPVRPTGQDWNHTPQKTDHPSALLRDPPEPGSPRISSLRPQGLSNPSTLSAQPQLSRSHSSGSVLPLGELEGRRSTRDRRSPAEPEGGPASEGAARPLPRFNSVPLTDTGHERQSEGSFSPQLQESVFHLLVPSVILVLLAVGGLLFYRWRRRSHQEPQRADSPLEQPEGSPLTQDDRQVELPV
B2: G-CSF: granulocyte colony stimulating factor (protein, UniProt P09919 31-207, looked up)
Granulocyte …: TPLGPASSLPQSFLLKCLEQVRKIQGDGAALQEKLVSECATYKLCHPEELVLLGHSLGIPWAPLSSCPSQALQLAGCLSQLHSGLFLYQGLLQALEGISPELGPTLDTLQLDVADFATTIWQQMEELGMAPALQPTQGAMPAFASAFQRRAGGVLVASHLQSFLEVSYRVLRHLAQP

How the values were obtained:
mouse GMPs = assay: Ex vivo expansion of mouse bone marrow-derived cells / mouse GMPs; type: cell-based; conditions: for ability to mimic the effect of SKL2001 for the expansion of mouse GMPs: in place of SKL2001; for effect on expansion of mouse GMPs in SCF/2i: Wnt/β-catenin signaling inhibitor added to SCF/2i
Description: (§1) (A) Schematic of the experimental design to identify growth factors and small molecules that can promote expansion of mouse bone marrow-derived stem cells. (B) Representative phase-contrast images of mouse bone marrow cells cultured in N2B27 supplemented with the indicated small molecule inhibitors for 7 days. (C) Representative phase-contrast images of mouse bone marrow cells cultured in N2B27 supplemented with SCF plus GDC0879 or SB590885 for 3 passages. (D) Cell growth curves. Bone marrow cells isolated from C57BL/6J mice were plated into 24-well plates at a density of 2×10^5 cells/well and cultured in B7 medium supplemented with the indicated small molecules/growth factor. Cells were counted and passaged every 3 days. Data are represented as mean±SD from three independent experiments. (E) Bone marrow cells isolated from C57BL/6J mice were cultured in B7 medium supplemented with SCF/2i. Cells were passaged every 3 days. Representative phase-contrast pictures showing SCF/2i cells at different passages. (F) Cytogenetic analysis of SCF/2i cells using the GWT banding method. Bone marrow cells isolated from a female C57BL/6J mouse were expanded in SCF/2i for 8 passages before used for cytogenetic analysis. […] (G) Sequential images of individual bone marrow cells during expansion in B7 medium supplemented with SCF/2i. SCF/2i-expanded bone marrow cells were plated into 96-well plates at a density of 50 cells/well and cultured in SCF/2i. Sequential images were taken using the Keyence BZ-X710 microscopy every 24 hours. 15.7±4.0 colonies formed per well on day 4 (n=3×96). Data are represented as mean±SD from three independent experiments.
Mouse GMP derivation, expansion, and differentiation. Cells were cultured at 37° C. in a 5% CO2 water jacket incubator (Thermo Scientific). Bone marrow cells isolated from C57BL/6J, mTmG or CAG-Cas9-EGFP mice were plated into 6-well plates at a density of 2×10^6 cells/well and cultured in 2 mL B7 medium supplemented with 50 ng/mL SCF, 1 μM GDC-0879, and 10 μM SKL2001 (SCF/2i). After 3-4 days, cells were dissociated into single-cell suspension by pipetting up and down and replated into 6-well plates at a density of 2×10^6 cells/well and cultured in 2 mL B7 medium supplemented with SCF/2i. After 2 passages in SCF/2i, the majority of cells were GMPs. GMPs were routinely passaged every 3 days. To induce differentiation, GMPs were plated into 10 cm tissue culture dishes and cultured in RPMI-1640 medium containing 10% FBS and supplemented with either 20 ng/mL M-CSF (for macrophage differentiation) or 20 ng/mL G-CSF (for granulocyte differentiation). GMP-derived macrophages were harvested on day 7 (medium was changed once on day 4) and GMP-derived granulocytes were harvested on day 3 and used for the further experiments.
Development of defined conditions for the long-term ex vivo expansion of hematopoietic stem/progenitor cells. To develop conditions for the long-term expansion of stem or progenitor cells of the hematopoietic system, screening was conducted to identify small molecules and growth factors/cytokines that can promote their ex vivo expansion (see FIG. 3A). Specifically, bone marrow cells isolated from adult C57BL/6 mice were plated into 96-well plates in serum-free N2B27 medium. Then a first-round small molecule screening was performed. It was reasoned that if a small molecule can block differentiation or promote expansion of stem cells, these stem cells should form colonies with a uniform cell morphology. […] Upon passaging, however, no new colonies were formed in culture with any of the 5 small molecule inhibitors. A second-round screening was conducted to identify growth factors/cytokines that could further improve the expansion of the colonies.
More importantly, these cells could be expanded robustly at clonal density (see FIG. 3G).
SCF/2i-expanded cells are GMPs. […]

[1] = test system: bone marrow cells isolated from adult C57BL/6 mice; assay: Small molecule screen for colony formation of mouse bone marrow cells in serum-free N2B27; type: cell-based; conditions: 96-well plates, serum-free N2B27, single small molecule, 7 days in culture
Description: as §1
Based on this finding, it was postulated that many, if not all, types of stem cells can be maintained during long-term in vitro culture by inhibiting signaling pathways responsible for initiating differentiation. […]

myeloperoxidase (MPO) = target: T1, myeloperoxidase (MPO); assay: Myeloperoxidase (MPO) activity assay in SCF/2i GMP-derived granulocytes and blood neutrophils; type: cell-based; conditions: 100 nM for 2 hours
Protocol: (F) ELISA analysis of cytokine secretion and MPO activity measurement in the indicated cells stimulated with 500 ng/ml LPS for 6 hours (for ELISA assay) or 100 nM PMA for 2 hours (for MPO assay). Data are represented as mean±SD from three independent experiments. Ctrl, no treatment control; ns, not significant.
Myeloperoxidase (MPO) assay. SCF/2i GMPs, blood neutrophils and SCF/2i GMP-derived granulocytes were plated into 96-well plates at a density of 2×10^4 cells/well and cultured in 100 μl RPMI 1640 medium supplemented with 10% FBS. […] The supernatants were harvested and MPO activities were measured using the neutrophil MPO activity assay kit (Cayman, 600620) according to the manufacturer's instructions.

SCF/2i GMPs = assay: In vitro differentiation of SCF/2i GMPs, flow cytometry; type: cell-based, mouse
Protocol: (A) Immunofluorescence and flow cytometry analysis of CD11b and F4/80 expression in cells differentiated from SCF/2i GMPs after treatment with M-CSF for 7 days. Flow cytometry data are represented as mean±SD from three independent experiments. (B) ELISA analysis of cytokine secretion in bone marrow (BM) and SCF/2i GMP-derived macrophages stimulated with 500 ng/ml LPS for 6 hours. Data are represented as mean±SD from three independent experiments. (C) Phagocytosis analysis of SCF/2i GMP-derived macrophages by incubating with FITC-labeled latex beads for 1 hour. Upper panel, a representative fluorescent image (green, FITC-labeled beads; blue, macrophage cell nuclei). Lower panel, flow cytometry analysis of SCF/2i GMP-derived macrophages incubated with (red) or without (blue) FITC-labeled latex beads. Flow cytometry data are represented as mean±SD from three independent experiments. (D) Time-lapse images of tdTomato-positive SCF/2i GMP-derived macrophages incubated with GFP labeled E. coli. The numbers on the images indicate the times in minutes. Arrows and arrowheads indicate the bacteria engulfed by macrophages. (E) Giemsa staining (upper panel) and flow cytometry analysis (lower panel) of SCF/2i GMPs treated with PBS or G-CSF for 3 days. Flow cytometry data are represented as mean±SD (n=5). […] A total of 192×3 wells from three independent experiments were counted for each group. […]

| Molecule | ability to mimic the effect of SKL2001 for the expansion of mouse GMPs (mouse GMPs) | formation of colonies with uniform cell morphology [1] | also measured |
| --- | --- | --- | --- |
| Wnt3a | could not mimic the effect of SKL2001 |  |  |
| Cc1cc([N+](=O)[O-])ccc1NS(=O)(=O)c1cc(Cl)ccc1Cl [FH535] |  |  | effect on expansion of mouse GMPs in SCF/2i (mouse GMPs): not affected |
| O=C(Nc1cccc2cccnc12)c1ccc(N2C(=O)[C@@H]3[C@H](C2=O)[C@@H]2C=C[C@H]3C2)cc1 [IWR1] |  | clusters of colonies were observed being formed | effect on expansion of mouse GMPs in SCF/2i (mouse GMPs): not affected |
| CCCCCCCCCCCCCC(=O)O[C@@H]1[C@@H](C)[C@@]2(O)[C@@H](C=C(CO)C[C@]3(O)C(=O)C(C)=C[C@@H]23)[C@@H]2C(C)(C)[C@]12OC(C)=O [PMA, phorbol myristate acetate] |  |  | MPO activity upon activation (myeloperoxidase (MPO)): significantly increased |
| C[S+]([O-])c1ccc(-c2nc(-c3ccncc3)c(-c3ccc(F)cc3)[nH]2)cc1 (centres unmarked) [SB203580] |  | clusters of colonies were observed being formed |  |
| Cc1cccc(-c2nn(C(=S)Nc3ccccc3)cc2-c2ccnc3ccccc23)n1 [A-8301] |  | clusters of colonies were observed being formed |  |
| Cc1c[nH]c(-c2cnc(NCCNc3ccc(C#N)cn3)nc2-c2ccc(Cl)cc2Cl)n1 [CHIR99021] | could not mimic the effect of SKL2001 |  |  |
| COc1cccc(-c2cc(NCc3ccc4c(c3)OCO4)nc(N)n2)c1 [Wnt agonist 1] | could not mimic the effect of SKL2001 |  |  |
| B1 |  |  | cells positive for both F4/80 and CD11b (SCF/2i GMPs; SCF/2i GMPs treated for 7 days): more than 99% |
| B2 |  |  | cells Ly6G+CD115− (SCF/2i GMPs; SCF/2i GMPs treated for 3 days): more than 80% |

Reference: US20240294876A1, “METHODS FOR THE EXPANSION OF HUMAN GRANULOCYTE-MACROPHAGE PROGENITORS AND APPLICATIONS THEREOF” (University of Southern California, priority 2021, published 2024)
